Assay results as given in patent US6521623B1, “N,N'-disubstituted benzimidazolone derivatives with affinity at the serotonin and dopamine receptors” (Boehringer Ingelheim Pharma KG, priority 2000, dated 2003).
Where two headings read alike, the source gives them in different places.

Assays:
5-HT1A = target: T1, 5-HT1A (Homo sapiens, UniProt P08908); assay: 5HT1A Radioligand Receptor Binding Assay ([3H]-8-OH-DPAT, CHO cell membranes); design: expressed in transfected cells; host or cells: CHO cells; conditions: for 5-HT1A Receptor Binding Assay % inhibition (10^−7 M): compound 10^−7 M, singlicate, [3H]-8-OH-DPAT 0.6-0.7 nM
T1 sequence (P08908 1-422): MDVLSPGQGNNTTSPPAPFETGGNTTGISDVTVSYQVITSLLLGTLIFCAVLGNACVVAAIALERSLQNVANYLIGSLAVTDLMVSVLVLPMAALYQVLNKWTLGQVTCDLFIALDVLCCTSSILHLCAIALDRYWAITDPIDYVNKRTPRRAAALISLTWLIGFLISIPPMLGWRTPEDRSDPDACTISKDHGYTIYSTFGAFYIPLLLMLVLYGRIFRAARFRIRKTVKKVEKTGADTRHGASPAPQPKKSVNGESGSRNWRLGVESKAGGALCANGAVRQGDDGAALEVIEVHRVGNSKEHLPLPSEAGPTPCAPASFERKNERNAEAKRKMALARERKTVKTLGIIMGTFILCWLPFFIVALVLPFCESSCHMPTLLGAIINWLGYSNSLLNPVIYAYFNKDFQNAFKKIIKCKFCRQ
Protocol: 5HT1A Radioligand Receptor Binding Assay
Membranes from CHO cells, expressing 5-HT1A human receptors were suspended in incubation buffer.
Binding assays were performed in MultiProbe 204 pipetting system (Packard), according to a predetermined mapping, consistent with the software Screen. The compounds were tested in singlicate at one concentration (10^−7 M) in a total volume of 1000 μl. 980 μl of diluted membranes, 10 μl DMSO or unlabelled ligand and 10 μl of [^3H]-8-OH-DPAT (0.6-0.7 nM) were incubated for 60 minutes at 27° C. The reaction was stopped by rapid filtration through Tomtec Cell Harvester (48 wells) using Filtermat B (presoaked in 0.1% PEI) filters. Filters were washed with ice-cold 50 mM Tris-HCl (pH 7.4) buffer (9×700 μl), dried, covered with MeltiLex B/HS scintillator sheets (Wallac) and heated at 80° C. to 90° C. for about 10 minutes, transferred into plastic sample bags (Wallac), sealed, and put into 1024 Beta Plate scintillation counter (Wallac). Non-specific binding was determined in the presence of 5-HT (10^−5 M).
The specific radioligand binding to the receptor was defined by the difference between total binding and non-specific binding, determined in the presence of an excess of unlabelled ligand. Results were expressed as percentage of control specific binding obtained in the presence of the compounds. The affinity values (IC50) for the compounds were obtained by a nonlinear least squares regression analysis on the basis of a one binding site model.

D4 human receptors = target: T2, D4 human receptors (Homo sapiens, UniProt P21917); assay: D4 Radioligand Receptor Binding Assay ([3H] YM-09151-2, CHO cell membranes); conditions: compound 10^−7 M, singlicate, [3H] YM-09151-2 0.15-0.25 nM
T2 construct: expressed in transfected cells; host or cells: CHO cells
T2 sequence (P21917 1-419): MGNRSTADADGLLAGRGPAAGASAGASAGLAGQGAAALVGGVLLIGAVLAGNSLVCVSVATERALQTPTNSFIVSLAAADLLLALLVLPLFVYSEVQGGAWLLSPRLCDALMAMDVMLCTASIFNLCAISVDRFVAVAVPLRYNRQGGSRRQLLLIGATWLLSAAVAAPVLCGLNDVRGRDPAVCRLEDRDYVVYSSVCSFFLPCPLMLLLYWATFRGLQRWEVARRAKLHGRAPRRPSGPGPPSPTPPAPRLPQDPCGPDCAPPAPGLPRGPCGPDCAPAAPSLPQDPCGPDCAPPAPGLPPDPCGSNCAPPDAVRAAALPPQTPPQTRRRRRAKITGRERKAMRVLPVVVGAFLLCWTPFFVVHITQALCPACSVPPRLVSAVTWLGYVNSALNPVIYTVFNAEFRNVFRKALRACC
Protocol: D4 Radioligand Receptor Binding Assay
Membranes from CHO cells expressing D4 human receptors, were suspended in incubation buffer.
Binding assays were performed in MultiProbe 204 pipetting system (Packard), according to a predetermined mapping, consistent with the software Screen. The compounds were tested in singlicate at one concentration (10^−7 M) in a total volume of 1000 μl (980 μl of diluted membranes, 10 μl DMSO or unlabelled ligand and 10 μl of [^3H] YM-09151-2 (0.15-0.25 nM). After incubation for 120 minutes at 27° C., the reaction was stopped by rapid filtration through Tomtec Cell Harvester (48 wells) using Filtermat B (presoaked in 0.1% PEI) filters. Filters were washed with ice-cold 50 mM Tris-HCl (pH 7.4) buffer (9×700 μl), dried, covered with MeltiLex B/HS (Wallac) scintillator sheets and heated in oven at 80° C. to 90° C. for about 10 minutes, transferred into plastic sample bags (Wallac), sealed, and put into 1024 Beta Plate scintillation counter (Wallac). Non-specific binding was determined in the presence of clozapine dissolved in DMSO to a final concentration of 10^−5 M.
The specific radioligand binding to the receptor was defined by the difference between total binding and non-specific binding, determined in the presence of an excess of unlabelled ligand. Results were expressed as percentage of control specific binding obtained in the presence of the compounds.

[1] = [3H]-8-OH-DPAT, CHO membranes, human 5-HT1A, read-out: 5-HT1A Receptor Binding IC50

| Structure (SMILES) | 5-HT1A Receptor Binding Assay % inhibition (10^−7 M) (5-HT1A; CHO membranes, human 5-HT1A) [%] | D4 Receptor Binding Assay % inhibition (10^−7 M) (D4 human receptors) [%] | IC50 (5-HT1A; [1]) [nM] | IC50 (5-HT1A) [nM] |
| --- | --- | --- | --- | --- |
| COCCn1c(=O)n(CCCCN2CCN(c3ccccc3)CC2)c2ccccc21 [Compound 1] | 56 | 38 | – | – |
| COCCn1c(=O)n(CCCCN2CCc3c([nH]c4ccccc34)C2)c2ccccc21 [Compound 7] | 77 | 91 | – | – |
| COCCn1c(=O)n(CCCCN2CC=C(c3ccccc3)CC2)c2ccccc21 [Compound 10] | 60 | 47 | – | – |
| COCCn1c(=O)n(CCCCN2CCN(c3ccc(Cl)c(Cl)c3)CC2)c2ccccc21 [Compound 11] | 48 | 90 | – | – |
| COCCn1c(=O)n(CCCCN2CCN(c3ccccc3OC)CC2)c2ccccc21 [Compound 19] | 69 | 32 | – | – |
| O=c1n(CCCCN2CCN(c3ccccc3)CC2)c2ccccc2n1CCN1CCCCC1 [Compound 20] | 50 | 60 | – | – |
| O=c1n(CCCCN2CCN(c3ccccn3)CC2)c2ccccc2n1CCN1CCCCC1 [Compound 23] | 73 | 48 | – | – |
| O=c1n(CCCCN2CCN(c3cccc(Cl)c3)CC2)c2ccccc2n1CCN1CCCCC1 [Compound 24] | 90 | 67 | – | – |
| O=c1n(CCCCN2CCN(c3ncccn3)CC2)c2ccccc2n1CCN1CCCCC1 [Compound 25] | 48 | 44 | – | – |
| O=c1n(CCCCN2CCc3c([nH]c4ccccc34)C2)c2ccccc2n1CCN1CCCCC1 [Compound 26] | 70 | 94 | – | – |
| O=c1n(CCCCN2CCN(c3cccc(C(F)(F)F)c3)CC2)c2ccccc2n1CCN1CCCCC1 [Compound 28] | 89 | 35 | – | – |
| O=c1n(CCCCN2CC=C(c3ccccc3)CC2)c2ccccc2n1CCN1CCCCC1 [Compound 29] | 57 | 83 | – | – |
| O=c1n(CCCCN2CCN(c3ccc(Cl)c(Cl)c3)CC2)c2ccccc2n1CCN1CCCCC1 [Compound 30] | 44 | 90 | – | – |
| COc1ccccc1N1CCN(CCCCn2c(=O)n(CCN3CCCCC3)c3ccccc32)CC1 [Compound 38] | 92 | 78 | – | – |
| O=c1n(CCCCN2CCN(c3ccccc3)CC2)c2ccccc2n1CCN1CCOCC1 [Compound 39] | 36 | 42 | – | – |
| O=c1n(CCCCN2CCN(c3cccc(Cl)c3)CC2)c2ccccc2n1CCN1CCOCC1 [Compound 43] | 104 | 55 | – | – |
| O=c1n(CCO)c2ccccc2n1CCCCN1CCN(c2ccccc2)CC1 [Compound 56] | 63 | 71 | – | – |
| O=c1n(CCO)c2ccccc2n1CCCCN1CCN(c2ccccn2)CC1 [Compound 59] | 75 | 51 | – | – |
| O=c1n(CCO)c2ccccc2n1CCCCN1CC=C(c2ccccc2)CC1 [Compound 65] | 52 | 74 | – | – |
| O=c1n(CCO)c2ccccc2n1CCCCN1CCN(c2ccc(Cl)c(Cl)c2)CC1 [Compound 66] | 65 | 99 | – | – |
| COCCn1c(=O)n(C/C=C/CN2CCN(c3ccccn3)CC2)c2ccccc21 [Compound 296] | – | – | 8.2 | – |

| Structure (SMILES) | 5-HT1A Receptor Binding Assay % inhibition (10^−7 M) (5-HT1A; CHO membranes, human 5-HT1A) [%] | D4 Receptor Binding Assay % inhibition (10^−7 M) (D4 human receptors) [%] | IC50 (5-HT1A; [1]) [nM] | IC50 (5-HT1A) [nM] |
| --- | --- | --- | --- | --- |
| O=c1n(C/C=C\CN2CCN(c3ccccc3)CC2)c2ccccc2n1CCN1CCCCC1 [Compound 310] | – | – | 15 | – |
| O=c1n(C/C=C\CN2CCN(c3cccc(C(F)(F)F)c3)CC2)c2ccccc2n1CCN1CCCCC1 [Compound 318] | – | – | 3.1 | – |
| O=c1n(C/C=C/CN2CCN(c3ccccn3)CC2)c2ccccc2n1CCN1CCCCC1 [Compound 330] | – | – | 7.9 | – |
| O=c1n(C/C=C/CN2CCc3c([nH]c4ccccc34)C2)c2ccccc2n1CCN1CCCCC1 [Compound 333] | – | – | 16 | – |
| O=c1n(C/C=C/CN2CCN(c3cccc(C(F)(F)F)c3)CC2)c2ccccc2n1CCN1CCCCC1 [Compound 335] | – | – | 3.5 | – |
| O=c1n(C/C=C/CN2CCN(c3ccccn3)CC2)c2ccccc2n1CCN1CCOCC1 [Compound 347] | – | – | 13 | – |
| O=c1n(C/C=C/CN2CCN(c3cccc(C(F)(F)F)c3)CC2)c2ccccc2n1CCN1CCOCC1 [Compound 352] | – | – | 4.1 | – |
| O=c1n(C/C=C\CN2CCN(c3cccc(C(F)(F)F)c3)CC2)c2ccccc2n1CCO [Compound 369] | – | – | 3.5 | – |
| O=c1n(C/C=C\CN2CC=C(c3ccccc3)CC2)c2ccccc2n1CCO [Compound 370] | – | – | – | 4.4 |
| O=c1n(C/C=C/CN2CCN(c3ccccn3)CC2)c2ccccc2n1CCO [Compound 381] | – | – | 44 | – |
| CCNC(=O)OCCn1c(=O)n(C/C=C/CN2CCN(c3ccccn3)CC2)c2ccccc21 [Compound 415] | – | – | 14 | – |
| CCNC(=O)OCCn1c(=O)n(C/C=C/CN2CCN(c3cccc(Cl)c3)CC2)c2ccccc21 [Compound 416] | – | – | 7.9 | – |
| CC(=O)NCCn1c(=O)n(CCN2CCN(c3cccc(C)c3C)CC2)c2ccccc21 [Compound 446] | – | – | 7.3 | – |
| CC(=O)NCCn1c(=O)n(C/C=C\CN2CCN(c3cccc(C(F)(F)F)c3)CC2)c2ccccc21 [Compound 459] | – | – | 8.8 | – |
| CC(=O)NCCn1c(=O)n(C/C=C\CN2CCN(c3cccc(C)c3C)CC2)c2ccccc21 [Compound 468] | – | – | 3.1 | – |
| CC(=O)NCCn1c(=O)n(C/C=C\CN2CCN(c3ccccc3Cl)CC2)c2ccccc21 [Compound 472] | – | – | 3.1 | – |
| CS(=O)(=O)NCCn1c(=O)n(C/C=C\CN2CCN(c3cccc(C(F)(F)F)c3)CC2)c2ccccc21 [Compound 503] | – | – | 2.8 | – |
| CS(=O)(=O)NCCn1c(=O)n(C/C=C\CN2CC=C(c3ccccc3)CC2)c2ccccc21 [Compound 504] | – | – | – | 3.6 |
| Cc1cccc(N2CCN(C/C=C\Cn3c(=O)n(CCNS(C)(=O)=O)c4ccccc43)CC2)c1C [Compound 512] | – | – | 0.59 | – |
| CS(=O)(=O)NCCn1c(=O)n(C/C=C/CN2CCN(c3ccccn3)CC2)c2ccccc21 [Compound 520] | – | – | 8.1 | – |
| Cc1cccc(N2CCN(C/C=C/Cn3c(=O)n(CCNS(C)(=O)=O)c4ccccc43)CC2)c1 [Compound 536] | – | – | 9.5 | – |
